Assay results: patent publication US11319322B2, “Substituted aryl ether compound, preparation method thereof, pharmaceutical composition and use thereof” (Xiamen University, priority 2017, dated 2022)

How the values were obtained:
CCDC6-RET-BaF3 = molecular target: T1, CCDC6-RET-BaF3 (Homo sapiens, UniProt P07949); experiment: Growth inhibition of CCDC6-RET-BaF3 cells stably transfected with kinase (MTS); type: cell-based; conditions: 48 h, read-out: CCDC6-RET (IC50/nM)
T1 construct: fused on or other part: Q16204 (Coiled-coil domain-containing protein 6)
Summary of the method: (§1)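 BaF3 cells stably expressing CCDC6-RET or KIF5B-RET, or parental BaF3, 2×10^4 cells/well, treated 48 h at 37 °C with 8-point 1:3 dilutions from 10 μM (0.1% DMSO). MTS/PES added 1–4 h, OD490 read; inhibition versus DMSO and blank gave IC50.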

KIF5B-RET-BaF3 = molecular target: T2, KIF5B-RET-BaF3 (Homo sapiens, UniProt P07949); experiment: Growth inhibition of KIF5B-RET-BaF3 cells stably transfected with kinase (MTS); type: cell-based; conditions: 48 h, read-out: KIF5B-RET (IC50/nM)
T2 construct: fused on or other part: P33176 (Kinesin-1 heavy chain)
Summary of the method: as §1

T1 sequence (P07949 whole entry, change not shown, the tested form may be a part): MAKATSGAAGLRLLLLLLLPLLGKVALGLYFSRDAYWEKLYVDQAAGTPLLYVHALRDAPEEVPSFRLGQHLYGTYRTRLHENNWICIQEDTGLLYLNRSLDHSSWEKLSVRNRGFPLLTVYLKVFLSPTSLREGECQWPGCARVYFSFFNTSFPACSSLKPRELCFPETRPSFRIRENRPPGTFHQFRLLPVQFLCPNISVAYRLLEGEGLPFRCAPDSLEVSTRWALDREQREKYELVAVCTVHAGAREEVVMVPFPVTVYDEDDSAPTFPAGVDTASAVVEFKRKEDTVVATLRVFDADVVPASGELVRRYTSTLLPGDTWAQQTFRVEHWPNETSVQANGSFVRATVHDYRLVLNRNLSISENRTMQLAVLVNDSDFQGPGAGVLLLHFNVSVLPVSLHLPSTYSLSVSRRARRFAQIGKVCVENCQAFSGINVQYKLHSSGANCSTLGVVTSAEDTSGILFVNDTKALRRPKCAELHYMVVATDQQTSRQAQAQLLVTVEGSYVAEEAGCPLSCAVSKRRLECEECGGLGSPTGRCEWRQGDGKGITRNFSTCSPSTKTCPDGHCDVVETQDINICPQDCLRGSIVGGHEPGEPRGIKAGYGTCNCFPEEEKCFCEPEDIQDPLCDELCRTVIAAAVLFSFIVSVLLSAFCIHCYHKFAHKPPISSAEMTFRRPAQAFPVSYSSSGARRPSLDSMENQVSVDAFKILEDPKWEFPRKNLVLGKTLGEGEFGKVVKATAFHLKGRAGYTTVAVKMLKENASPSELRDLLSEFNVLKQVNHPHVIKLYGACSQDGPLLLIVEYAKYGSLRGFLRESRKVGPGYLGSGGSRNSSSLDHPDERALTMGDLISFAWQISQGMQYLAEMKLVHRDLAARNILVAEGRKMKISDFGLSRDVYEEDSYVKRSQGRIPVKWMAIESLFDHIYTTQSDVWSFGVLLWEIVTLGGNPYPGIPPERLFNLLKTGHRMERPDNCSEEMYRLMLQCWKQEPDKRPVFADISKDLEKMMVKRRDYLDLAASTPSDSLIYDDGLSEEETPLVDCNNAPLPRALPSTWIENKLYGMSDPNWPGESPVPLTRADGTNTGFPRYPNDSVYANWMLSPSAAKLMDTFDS
T2 sequence (P07949 whole entry, change not shown, the tested form may be a part): as above

GI50 (CCDC6-RET-BaF3) [nM]	GI50 (KIF5B-RET-BaF3) [nM]	Compound
2810	1540	CN1CCN(Cc2ccc(C(=O)Nc3cccc(Oc4nc(-c5cccnc5)nc5cc[nH]c45)c3)cc2C(F)(F)F)CC1 [III-h-1]
16.8	16.4	CN1CCN(Cc2ccc(C(=O)Nc3cccc(Oc4nc(-c5ccncc5)nc5cc[nH]c45)c3)cc2C(F)(F)F)CC1 [III-h-2]
4100	2140	CN1CCN(Cc2ccc(C(=O)Nc3cccc(Oc4nc(-c5cccnc5)nc5ccn(C)c45)c3)cc2C(F)(F)F)CC1 [III-h-3]
195	180	CN1CCN(Cc2ccc(C(=O)Nc3cccc(Oc4nc(-c5ccncc5)nc5ccn(C)c45)c3)cc2C(F)(F)F)CC1 [III-h-4]
4110	2850	Cc1ccc(NC(=O)c2ccc(CN3CCN(C)CC3)c(C(F)(F)F)c2)cc1Oc1nc(-c2cccnc2)nc2cc[nH]c12 [III-i-1]
1400	774	Cc1ccc(NC(=O)c2ccc(CN3CCN(C)CC3)c(C(F)(F)F)c2)cc1Oc1nc(-c2ccncc2)nc2cc[nH]c12 [III-i-2]
4340	3630	Cc1ccc(NC(=O)c2ccc(CN3CCN(C)CC3)c(C(F)(F)F)c2)cc1Oc1nc(-c2cccnc2)nc2ccn(C)c12 [III-i-3]
2020	1330	Cc1ccc(NC(=O)c2ccc(CN3CCN(C)CC3)c(C(F)(F)F)c2)cc1Oc1nc(-c2ccncc2)nc2ccn(C)c12 [III-i-4]
5940	3250	Cc1ccc(Oc2nc(-c3cccnc3)nc3cc[nH]c23)cc1NC(=O)c1ccc(CN2CCN(C)CC2)c(C(F)(F)F)c1 [III-j-1]
6.06	2.32	Cc1ccc(Oc2nc(-c3ccncc3)nc3cc[nH]c23)cc1NC(=O)c1ccc(CN2CCN(C)CC2)c(C(F)(F)F)c1 [III-j-2]
4260	3100	Cc1ccc(Oc2nc(-c3cccnc3)nc3ccn(C)c23)cc1NC(=O)c1ccc(CN2CCN(C)CC2)c(C(F)(F)F)c1 [III-j-5]
28	13.2	Cc1ccc(Oc2nc(-c3ccncc3)nc3ccn(C)c23)cc1NC(=O)c1ccc(CN2CCN(C)CC2)c(C(F)(F)F)c1 [III-j-6]
2200	2380	Cc1ccc(-c2nc(Oc3ccc(Cl)c(NC(=O)c4ccc(CN5CCN(C)CC5)c(C(F)(F)F)c4)c3)c3[nH]ccc3n2)cc1 [III-k-15]
22.7	5.71	CN1CCN(Cc2ccc(NC(=O)c3cccc(Oc4nc(-c5ccncc5)nc5cc[nH]c45)c3)cc2C(F)(F)F)CC1 [III-l-2]
1400	1540	CN1CCN(Cc2ccc(NC(=O)c3cccc(Oc4nc(-c5cccnc5)nc5ccn(C)c45)c3)cc2C(F)(F)F)CC1 [III-l-3]
18.7	11.3	CN1CCN(Cc2ccc(NC(=O)c3cccc(Oc4nc(-c5ccncc5)nc5ccn(C)c45)c3)cc2C(F)(F)F)CC1 [III-l-4]
4500	2100	Cc1ccc(C(=O)Nc2ccc(CN3CCN(C)CC3)c(C(F)(F)F)c2)cc1Oc1nc(-c2cccnc2)nc2cc[nH]c12 [III-m-1]
3630	1310	Cc1ccc(C(=O)Nc2ccc(CN3CCN(C)CC3)c(C(F)(F)F)c2)cc1Oc1nc(-c2ccncc2)nc2cc[nH]c12 [III-m-2]
3150	2760	Cc1ccc(C(=O)Nc2ccc(CN3CCN(C)CC3)c(C(F)(F)F)c2)cc1Oc1nc(-c2ccoc2)nc2ccn(C)c12 [III-m-17]
53.7	21	Cc1ccc(Oc2nc(-c3ccncc3)nc3cc[nH]c23)cc1C(=O)Nc1ccc(CN2CCN(C)CC2)c(C(F)(F)F)c1 [III-n-2]
43.1	17.2	Cc1ccc(Oc2nc(-c3ccncc3)nc3ccn(C)c23)cc1C(=O)Nc1ccc(CN2CCN(C)CC2)c(C(F)(F)F)c1 [III-n-4]
4530	3380	CN1CCN(Cc2cc(NC(=O)c3cccc(Oc4nc(-c5cccnc5)nc5ccn(C)c45)c3)cc(C(F)(F)F)c2)CC1 [III-p-3]
4450	4770	Cc1ccc(Oc2nc(-c3cccnc3)nc3cc[nH]c23)cc1C(=O)Nc1cc(CN2CCN(C)CC2)cc(C(F)(F)F)c1 [III-r-1]
